Reference: ChEMBL document CHEMBL5370598, “[3H]UR-JG102-A Radiolabeled Cyclic Peptide with High Affinity and Excellent Selectivity for the Neuropeptide Y Y4 Receptor” (J Med Chem, 2023)

Experiments:
[1] = molecular target: T1, Neuropeptide Y receptor type 4 (Homo sapiens, UniProt P50391); experiment: Agonist activity at human Y4R expressed in HEK293T cells incubated for 60 mins by cAMP CAMYEN assay relative to control; assay type: functional, cell-based; details: filed as agonist
[2] = molecular target: T1, Neuropeptide Y receptor type 4; experiment: Agonist activity at human Y4R expressed in HEK293T cells incubated for 60 mins by cAMP CAMYEN assay; assay type: functional, cell-based
[3] = molecular target: T1, Neuropeptide Y receptor type 4; experiment: Displacement of [3H]-(9S,12S,15S,19R,E)-4-amino-N-((S)-1-(((S)-1-(((S)-1-amino-3-(4-hydroxyphenyl)-1-oxopropan-2-yl)amino)-5-guanidino-1-oxopentan-2-yl)amino)-4-methyl-1-oxopentan-2-yl)-15-(3-guanidinopropyl)-12-(4-hydroxybenzyl)-2,11,14,17,20-pentaoxo-19-(4-(propanamido-2,3-t2)butanamido)-1,3,5,10,13,16,21-heptaazacyclopentacos-3-ene-9-carboxamide from human Y4R expressed in CHO cells coexpressing Gqi5-mtAEQ under hypotonic sodium free buffer condition; assay type: cell-based
[4] = molecular target: T1, Neuropeptide Y receptor type 4; experiment: Agonist activity at human Y4R expressed in CHO cells co-expressing Gqi5-mtAEQ by calcium2+ aequorin assay relative to control; assay type: functional, cell-based; details: filed as agonist
[5] = molecular target: T1, Neuropeptide Y receptor type 4; experiment: Displacement of [3H]-(9S,12S,15S,19R,E)-4-amino-N-((S)-1-(((S)-1-(((S)-1-amino-3-(4-hydroxyphenyl)-1-oxopropan-2-yl)amino)-5-guanidino-1-oxopentan-2-yl)amino)-4-methyl-1-oxopentan-2-yl)-15-(3-guanidinopropyl)-12-(4-hydroxybenzyl)-2,11,14,17,20-pentaoxo-19-(4-(propanamido-2,3-t2)butanamido)-1,3,5,10,13,16,21-heptaazacyclopentacos-3-ene-9-carboxamide from human Y4R expressed in CHO cells coexpressing Gqi5-mtAEQ under isotonic sodium containing buffer condition; assay type: cell-based
[6] = molecular target: T1, Neuropeptide Y receptor type 4; experiment: Binding affinity to human Y4R under sodium free condition
[7] = molecular target: T1, Neuropeptide Y receptor type 4; experiment: Binding affinity to human Y4R under 150 mM sodium condition
[8] = molecular target: T2, Neuropeptide Y receptor type 1 (Homo sapiens, UniProt P25929); experiment: Displacement of [3H]UR-MK299 from human Y1R expressed in SK-N-MC cells; assay type: cell-based
T2 sequence (P25929 whole entry): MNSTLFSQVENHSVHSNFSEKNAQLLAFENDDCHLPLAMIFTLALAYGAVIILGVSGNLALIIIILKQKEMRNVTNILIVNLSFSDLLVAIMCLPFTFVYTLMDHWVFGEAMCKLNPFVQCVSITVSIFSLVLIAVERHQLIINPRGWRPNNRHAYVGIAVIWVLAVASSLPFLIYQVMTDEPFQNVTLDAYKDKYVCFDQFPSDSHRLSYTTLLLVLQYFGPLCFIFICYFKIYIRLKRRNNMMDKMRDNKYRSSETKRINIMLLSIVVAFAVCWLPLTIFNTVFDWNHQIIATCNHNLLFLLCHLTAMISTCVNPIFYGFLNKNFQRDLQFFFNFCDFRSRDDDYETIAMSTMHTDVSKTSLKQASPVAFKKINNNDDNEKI

[9] = molecular target: T1, Neuropeptide Y receptor type 4; experiment: Agonist activity at human Y4R expressed in HEK293T cells by miniGsi assay relative to control; assay type: functional, cell-based; details: filed as agonist
[10] = molecular target: T3, Neuropeptide Y receptor type 2 (Homo sapiens, UniProt P49146); experiment: Displacement of [3H]propionyl-pNPY from human Y2R expressed in CHO cells; assay type: cell-based
T3 sequence (P49146 whole entry): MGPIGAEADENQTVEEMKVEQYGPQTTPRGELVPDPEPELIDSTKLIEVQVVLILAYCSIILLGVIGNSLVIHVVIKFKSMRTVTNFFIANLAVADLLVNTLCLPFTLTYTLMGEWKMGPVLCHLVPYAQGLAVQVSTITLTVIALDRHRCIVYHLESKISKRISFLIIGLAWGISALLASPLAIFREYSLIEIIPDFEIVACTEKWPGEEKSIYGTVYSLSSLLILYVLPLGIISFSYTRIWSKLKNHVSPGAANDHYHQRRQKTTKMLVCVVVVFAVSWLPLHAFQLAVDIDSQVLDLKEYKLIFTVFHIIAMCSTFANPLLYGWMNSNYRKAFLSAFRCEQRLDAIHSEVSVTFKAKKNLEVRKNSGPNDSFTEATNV

[11] = molecular target: T1, Neuropeptide Y receptor type 4; experiment: Agonist activity at human Y4R expressed in CHO cells co-expressing Gqi5-mtAEQ by calcium2+ aequorin assay; assay type: functional, cell-based
[12] = molecular target: T1, Neuropeptide Y receptor type 4; experiment: Agonist activity at human Y4R expressed in HEK293T cells by miniGsi assay; assay type: functional, cell-based
[13] = molecular target: T4, Neuropeptide Y receptor type 5 (Homo sapiens, UniProt Q15761); experiment: Displacement of [3H]propionyl-pNPY from human Y5R expressed in HEC-1B cells; assay type: cell-based, HEC-1B cell line
T4 sequence (Q15761 whole entry): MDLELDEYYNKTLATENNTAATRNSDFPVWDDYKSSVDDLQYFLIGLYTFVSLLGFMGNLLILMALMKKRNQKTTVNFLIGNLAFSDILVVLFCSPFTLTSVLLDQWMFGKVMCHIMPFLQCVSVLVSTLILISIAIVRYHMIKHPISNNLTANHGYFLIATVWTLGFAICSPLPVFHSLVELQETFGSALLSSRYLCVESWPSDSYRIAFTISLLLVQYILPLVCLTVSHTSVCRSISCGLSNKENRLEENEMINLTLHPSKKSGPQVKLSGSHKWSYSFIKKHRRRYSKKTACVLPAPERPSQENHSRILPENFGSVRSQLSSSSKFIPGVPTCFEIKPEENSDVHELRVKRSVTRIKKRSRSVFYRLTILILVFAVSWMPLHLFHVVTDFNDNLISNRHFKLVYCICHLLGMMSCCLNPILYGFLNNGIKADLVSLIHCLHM

[14] = molecular target: T1, Neuropeptide Y receptor type 4; experiment: Displacement of [3H]UR-KK200 from human Y4R expressed in CHO cells co-expressing Gqi5-mtAEQ; assay type: cell-based
[15] = molecular target: T1, Neuropeptide Y receptor type 4; experiment: Binding affinity to human Y4R expressed in CHO cells co-expressing Gqi5-mtAEQ assessed as Kon preincubated for 2 hrs under DPBS condition; assay type: cell-based; details: filed as agonist, tested as the 3H-labelled form
[16] = molecular target: T1, Neuropeptide Y receptor type 4; experiment: Binding affinity to human Y4R expressed in CHO cells co-expressing Gqi5-mtAEQ assessed as Koff preincubated for 20 mins under DPBS condition; assay type: cell-based; details: filed as agonist, tested as the 3H-labelled form
[17] = molecular target: T1, Neuropeptide Y receptor type 4; experiment: Binding affinity to human Y4R expressed in CHO cells co-expressing Gqi5-mtAEQ assessed as Kon preincubated for 20 mins under DPBS condition; assay type: cell-based; details: filed as agonist, tested as the 3H-labelled form
[18] = molecular target: T1, Neuropeptide Y receptor type 4; experiment: Binding affinity to human Y4R expressed in CHO cells co-expressing Gqi5-mtAEQ assessed as Kon under sodium free buffer condition; assay type: cell-based; details: filed as agonist, tested as the 3H-labelled form
[19] = molecular target: T1, Neuropeptide Y receptor type 4; experiment: Binding affinity to human Y4R expressed in CHO cells co-expressing Gqi5-mtAEQ assessed as observed association rate constant preincubated for 20 mins under DPBS condition; assay type: cell-based; details: filed as agonist, tested as the 3H-labelled form
[20] = Chemical stability in PBS buffer at pH 7.4 after 48 hrs by RP-HPLC analysis; assay type: physicochemical; details: pH 7.4, 48 h
Homo sapiens [21] = species: Homo sapiens; experiment: Selectivity ratio of pKi for human Y2R to pKi for human Y4R
[22] = molecular target: T1, Neuropeptide Y receptor type 4; experiment: Binding affinity to human Y4R expressed in CHO cells co-expressing Gqi5-mtAEQ assessed as Koff under sodium free buffer condition; assay type: cell-based; details: filed as agonist, tested as the 3H-labelled form
Homo sapiens [23] = species: Homo sapiens; experiment: Selectivity ratio of pKi for human Y1R to pKi for human Y4R
Homo sapiens [24] = species: Homo sapiens; experiment: Selectivity ratio of pKi for human Y5R to pKi for human Y4R
[25] = molecular target: T1, Neuropeptide Y receptor type 4; experiment: Binding affinity to human Y4R expressed in CHO cells co-expressing Gqi5-mtAEQ assessed as Koff preincubated for 2 hrs under DPBS condition; assay type: cell-based; details: filed as agonist, tested as the 3H-labelled form
[26] = molecular target: T1, Neuropeptide Y receptor type 4; experiment: Binding affinity to human Y4R expressed in CHO cells co-expressing Gqi5-mtAEQ assessed as observed association rate constant under sodium free buffer condition; assay type: cell-based; details: filed as agonist, tested as the 3H-labelled form

T1 sequence (P50391 whole entry): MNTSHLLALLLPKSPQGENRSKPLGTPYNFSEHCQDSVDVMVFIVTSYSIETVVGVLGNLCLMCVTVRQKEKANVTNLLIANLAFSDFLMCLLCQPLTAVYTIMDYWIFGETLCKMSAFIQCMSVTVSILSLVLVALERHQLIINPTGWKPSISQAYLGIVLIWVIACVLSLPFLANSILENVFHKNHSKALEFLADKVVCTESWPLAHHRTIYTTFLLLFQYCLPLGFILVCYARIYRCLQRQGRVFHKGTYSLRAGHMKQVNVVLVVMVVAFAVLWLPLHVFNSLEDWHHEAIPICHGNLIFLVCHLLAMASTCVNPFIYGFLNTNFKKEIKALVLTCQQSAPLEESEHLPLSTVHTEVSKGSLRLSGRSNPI

Structure (SMILES)	Emax [1] [%]	EC50 ([2]; read-out: EC50) [nM]	EC50 ([2]; read-out: pEC50 (converted)) [nM]	Ki ([3]; read-out: Ki) [nM]	Ki ([3]; read-out: pKi (converted)) [nM]	Emax [4] [%]	Ki ([5]; read-out: Ki) [nM]	Ki ([5]; read-out: pKi (converted)) [nM]	Kd [6] [nM]	Ki ([8]; read-out: pKi (converted)) [nM]	Ki ([8]; sk-n-mc, read-out: Ki) [nM]	Emax [9] [%]	Ki ([10]; read-out: pKi (converted)) [nM]	EC50 ([11]; read-out: EC50) [nM]	EC50 ([11]; read-out: pEC50 (converted)) [nM]	EC50 [12] [nM]	Ki ([13]; hec-1b cell line, read-out: Ki) [nM]	Ki ([13]; read-out: pKi (converted)) [nM]	Ki ([14]; read-out: Ki) [nM]	other results
CC(C)C[C@H](NC(=O)[C@@H]1CCCNC(=N)NC(=O)NCCCCNC(=O)CCC(=O)N[C@@H](CCCNC(=N)N)C(=O)N[C@@H](Cc2ccc(O)cc2)C(=O)N1)C(=O)N[C@@H](CCCNC(=N)N)C(=O)N[C@@H](Cc1ccc(O)cc1)C(N)=O	113	0.17	0.162	0.011	0.00912	100	0.076	0.0741	–	–	–	–	–	–	–	–	–	–	–	–
[3H]CC([3H])C(=O)NCCCC[C@H](NC(=O)[C@H](CC(C)C)NC(=O)[C@@H]1CCCN1C(=O)[C@H](C)N)C(=O)N1CCC[C@H]1C(=O)N[C@H](C(=O)N[C@@H](Cc1ccc(O)cc1)C(=O)N1CCC[C@H]1C(=O)NCC(=O)N[C@@H](CC(=O)O)C(=O)N[C@@H](CC(N)=O)C(=O)N[C@@H](C)C(=O)N[C@H](C(=O)N1CCC[C@H]1C(=O)N[C@@H](CCC(=O)O)C(=O)N[C@@H](CCC(N)=O)C(=O)NC(CCCC)C(=O)N[C@@H](C)C(=O)N[C@@H](CCC(N)=O)C(=O)N[C@@H](Cc1ccc(O)cc1)C(=O)N[C@@H](C)C(=O)N[C@@H](C)C(=O)N[C@@H](CC(N)=O)C(=O)N[C@@H](CC(C)C)C(=O)N[C@@H](CCCNC(=N)N)C(=O)N[C@@H](CCCNC(=N)N)C(=O)N[C@@H](Cc1ccc(O)cc1)C(=O)N[C@H](C(=O)N[C@@H](CC(N)=O)C(=O)NC(CCCC)C(=O)N[C@@H](CC(C)C)C(=O)N[C@H](C(=O)N[C@@H](CCCNC(=N)N)C(=O)N1CCC[C@H]1C(=O)N[C@@H](CCCNC(=N)N)C(=O)N[C@@H](Cc1ccc(O)cc1)C(N)=O)[C@@H](C)O)[C@@H](C)CC)[C@@H](C)O)C(C)C (stereo partly drawn)	–	–	–	–	–	–	–	–	1.1	–	–	–	–	–	–	–	–	–	–	Kd [7]: 20.9 nM
CCC(=O)N[C@H]1CC(=O)N[C@@H](CCCNC(=N)N)C(=O)N[C@@H](Cc2ccc(O)cc2)C(=O)N[C@H](C(=O)N[C@@H](CC(C)C)C(=O)N[C@@H](CCCNC(=N)N)C(=O)N[C@@H](Cc2ccc(O)cc2)C(N)=O)CCCN/C(N)=N/C(=O)NCCCCNC1=O	82	0.13	–	–	–	80	–	–	–	> 1000	> 1000	58	> 10000	24	22.4	3.8	> 1000	> 1000	0.15	Ki ([10]; cho, read-out: Ki): > 10000 nM
[3H]CC([3H])C(=O)NCCCCNC(=O)/N=C(\N)NCCCC[C@H](NC(=O)[C@H](Cc1ccc(O)cc1)NC(=O)CCCCCCC(=O)N[C@@H](Cc1ccc(O)cc1)C(=O)N[C@@H](CCCNC(=N)N)C(=O)N[C@@H](CC(C)C)C(=O)N[C@@H](CCCNC(=N)N)C(=O)N[C@@H](Cc1ccc(O)cc1)C(N)=O)C(=O)N[C@@H](CC(C)C)C(=O)N[C@@H](CCCNC(=N)N)C(=O)N[C@@H](Cc1ccc(O)cc1)C(N)=O (stereo partly drawn)	–	–	–	0.41	0.209	–	6.7	–	0.67	–	–	–	–	–	–	–	–	–	–	–
CCC(=O)NCCCC(=O)N[C@@H]1CC(=O)N[C@@H](CCCNC(=N)N)C(=O)N[C@@H](Cc2ccc(O)cc2)C(=O)N[C@H](C(=O)N[C@@H](CC(C)C)C(=O)N[C@@H](CCCNC(=N)N)C(=O)N[C@@H](Cc2ccc(O)cc2)C(N)=O)CCCN/C(N)=N/C(=O)NCCCCNC1=O.O=C(O)C(F)(F)F.O=C(O)C(F)(F)F.O=C(O)C(F)(F)F	83	0.17	0.126	0.01	0.00891	65	0.088	0.0832	–	> 1000	> 1000	60	> 3160	5.4	5.13	5.1	> 1000	> 1000	0.036	K [15]: 1.17e+07 M⁻¹ s⁻¹; K [16]: 0.12 min⁻¹; K [17]: 1.4e+08 M⁻¹ s⁻¹; Ki ([10]; read-out: Ki): > 3000 nM; K [18]: 6.83e+07 M⁻¹ s⁻¹; K [19]: 0.54 min⁻¹; Stability [20]: Stable; Ratio pKi (Homo sapiens [21]): > 27000; Ratio pKi (Homo sapiens [21]; tested as the 3H-labelled form): > 27000; K [22]: 0.009 min⁻¹; Ratio pKi (Homo sapiens [23]): > 27000; Ratio pKi (Homo sapiens [23]; tested as the 3H-labelled form): > 27000; Ratio pKi (Homo sapiens [24]): > 27000; Ratio pKi (Homo sapiens [24]; tested as the 3H-labelled form): > 27000; K [25]: 0.059 min⁻¹; Ki ([14]; read-out: pKi (converted)): 0.0316 nM; K [26]: 0.071 min⁻¹
